# Laboratory results: patent US10112929B2, “Lactams as inhibitors of rock” (BRISTOL-MYERS SQUIBB COMPANY, priority 2015, dated 2018)
# Counter-ions that a name gives are not always drawn.
# Biological target: ROCK2 (Homo sapiens (Human), UniProt O75116)
# Experiment: biochemical
# 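Further: rho kinase enzyme reaction halted with EDTA, phospho- and non-phospho peptide separated for read-out, kinase activity inhibition derived across a dose-response series, DMSO under 2%.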
# Chain of ROCK2 (O75116 whole entry, species assumed): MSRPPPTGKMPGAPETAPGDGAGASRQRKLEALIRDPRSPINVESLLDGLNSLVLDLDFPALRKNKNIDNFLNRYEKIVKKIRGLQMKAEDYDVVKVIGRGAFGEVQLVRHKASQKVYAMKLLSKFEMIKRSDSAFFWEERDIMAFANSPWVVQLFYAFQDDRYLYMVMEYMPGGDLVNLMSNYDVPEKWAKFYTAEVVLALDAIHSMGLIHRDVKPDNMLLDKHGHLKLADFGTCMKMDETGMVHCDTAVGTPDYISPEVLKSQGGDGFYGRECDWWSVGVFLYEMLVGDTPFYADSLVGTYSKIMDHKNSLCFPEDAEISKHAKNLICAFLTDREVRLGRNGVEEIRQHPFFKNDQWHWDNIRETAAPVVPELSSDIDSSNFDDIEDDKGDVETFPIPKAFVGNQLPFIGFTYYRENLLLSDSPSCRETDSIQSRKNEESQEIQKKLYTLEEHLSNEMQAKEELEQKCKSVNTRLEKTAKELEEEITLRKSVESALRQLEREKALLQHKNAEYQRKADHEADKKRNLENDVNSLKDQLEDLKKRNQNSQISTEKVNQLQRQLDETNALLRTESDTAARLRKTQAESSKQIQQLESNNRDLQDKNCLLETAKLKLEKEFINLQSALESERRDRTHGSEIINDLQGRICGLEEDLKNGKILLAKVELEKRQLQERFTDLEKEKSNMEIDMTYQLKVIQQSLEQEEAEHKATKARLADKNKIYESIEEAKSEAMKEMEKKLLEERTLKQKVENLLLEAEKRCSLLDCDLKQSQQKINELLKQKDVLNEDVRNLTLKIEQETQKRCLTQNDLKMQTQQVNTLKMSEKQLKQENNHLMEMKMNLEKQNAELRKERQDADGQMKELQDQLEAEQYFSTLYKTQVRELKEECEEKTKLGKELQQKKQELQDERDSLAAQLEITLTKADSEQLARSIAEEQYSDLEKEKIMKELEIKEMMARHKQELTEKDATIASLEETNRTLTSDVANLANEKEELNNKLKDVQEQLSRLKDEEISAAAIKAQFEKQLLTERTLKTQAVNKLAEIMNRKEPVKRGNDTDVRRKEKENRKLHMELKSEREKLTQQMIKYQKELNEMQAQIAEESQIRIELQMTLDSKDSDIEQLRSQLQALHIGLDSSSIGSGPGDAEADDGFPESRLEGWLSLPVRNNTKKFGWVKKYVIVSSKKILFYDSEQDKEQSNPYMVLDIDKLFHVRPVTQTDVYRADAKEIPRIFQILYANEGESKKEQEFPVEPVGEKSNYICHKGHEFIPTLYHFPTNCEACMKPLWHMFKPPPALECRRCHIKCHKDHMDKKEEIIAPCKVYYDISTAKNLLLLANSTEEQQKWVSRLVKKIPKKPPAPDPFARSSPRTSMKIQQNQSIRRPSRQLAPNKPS
row,IC50,SMILES
1,< 10 nM,"CCOc1cccc(NC2CCN(c3ccc(-c4cn[nH]c4)c(OC)n3)C2=O)c1 (single isomer, unassigned) [Example 218, 3-((3-ethoxyphenyl)amino)-1-(6-methoxy-5-(1H-pyrazol-4-yl)pyridin-2-yl)pyrrolidin-2-one]"
2,< 10 nM,"COc1cc(NC2CCN(c3ccc(-c4cn[nH]c4)c(OC)n3)C2=O)ccc1F (single isomer, unassigned) [Example 207, 3-((4-fluoro-3-methoxyphenyl)amino)-1-(6-methoxy-5-(1H-pyrazol-4-yl)pyridin-2-yl)pyrrolidin-2-one]"
3,10 to 100 nM,"COc1nc(N2CCC(Nc3cc(C)nn3C)C2=O)ccc1-c1cn[nH]c1 (racemic) [Example 270, 3-((1,3-dimethyl-1H-pyrazol-5-yl)amino)-1-(6-methoxy-5-(1H-pyrazol-4-yl)pyridin-2-yl)pyrrolidin-2-one]"
4,10 to 100 nM,"COc1nc(N2CCC(N3CCOc4ccccc43)C2=O)ccc1-c1cn[nH]c1 (single isomer, unassigned) [Example 229, 3-(2H-benzo[b][1,4]oxazin-4(3H)-yl)-1-(6-methoxy-5-(1H-pyrazol-4-yl)pyridin-2-yl)pyrrolidin-2-one]"
5,10 to 100 nM,"COc1cc(F)cc(NC2CCN(c3ccc(-c4cn[nH]c4)c(C)n3)C2=O)c1 (single isomer, unassigned) [Example 192, 3-((3-fluoro-5-methoxyphenyl)amino)-1-(6-methyl-5-(1H-pyrazol-4-yl)pyridin-2-yl)pyrrolidin-2-one]"
6,< 10 nM,"COc1nc(N2CCC(N3CCNc4ccccc43)C2=O)ccc1-c1cn[nH]c1 (racemic) [Example 228, 3-(3,4-dihydroquinoxalin-1(2H)-yl)-1-(6-methoxy-5-(1H-pyrazol-4-yl)pyridin-2-yl)pyrrolidin-2-one]"
7,10 to 100 nM,"CCc1nc(N2CCC(Nc3ccc(F)c(OCC4CC4)c3)C2=O)ccc1-c1cn[nH]c1 (single isomer, unassigned) [Example 211, 3-((3-(cyclopropylmelhoxy)-4-fluorophenyl)amino)-1-(6-ethyl-5-(1H-pyrazol-4-yl)pyridin-2-yl)pyrrolidin-2-one]"
8,< 10 nM,"COc1cccc(NC2CCN(c3ccc(-c4cn[nH]c4)cn3)C2=O)c1 (single isomer, unassigned) [Example 85, 1-(5-(1H-pyrazol-4-yl)pyridin-2-yl)-3-((3-methoxyphenyl)amino)pyrrolidin-2-one]"
9,10 to 100 nM,"COc1nc(N2CCC(N3CCC(F)(F)CC3)C2=O)ccc1-c1cn[nH]c1 (racemic) [Example 282, 3-(4,4-difluoropiperidin-1-yl)-1-(6-methoxy-5-(1H-pyrazol-4-yl)pyridin-2-yl)pyrrolidin-2-one hydrochloride]"
10,10 to 100 nM,"COc1nc(N2CCC(Nc3cccc(-c4nnn[nH]4)c3)C2=O)ccc1-c1cn[nH]c1 (racemic) [Example 266, 3-((3-(1H-tetrazol-5-yl)phenyl)amino)-1-(6-methoxy-5-(1H-pyrazol-4-yl)pyridin-2-yl)pyrrolidin-2-one]"
11,100 to 2200 nM,"COc1nc(N2CCC(N3CCC(C(F)(F)F)CC3)C2=O)ccc1-c1cn[nH]c1 (racemic) [Example 285, 1-(6-methoxy-5-(1H-pyrazol-4-yl)pyridin-2-yl)-3-(4-(trifluoromethyl)piperidin-1-yl)pyrrolidin-2-one hydrochloride]"

# Continued, molecule first:
row,SMILES,IC50
1,"COc1cccc(NC2CCN(c3ccc(-c4cn[nH]c4)c(C(F)(F)F)c3)C2=O)c1 (single isomer, unassigned) [Example 367, 1-(4-(1H-pyrazol-4-yl)-3-(trifluoromethyl)phenyl)-3-((3-methoxyphenyl)amino) pyrrolidin-2-one]",100 to 2200 nM
2,"COc1cccc(NC2CCN(c3ccc(-c4cn[nH]c4)cc3)C2=O)c1 (centres unmarked) [Example 63, 1-(4-(1H-pyrazol-4-yl)phenyl)-3-((3-methoxyphenyl)amino)pyrrolidin-2-one]",< 10 nM
3,"O=C1C(Nc2cccc(OCC3CC3)c2)CCN1c1ccc(-c2cn[nH]c2)c(F)c1 (single isomer, unassigned) [Example 362, 3-((3-(cyclopropylmethoxy)phenyl)amino)-1-(3-fluoro-4-(1H-pyrazol-4-yl)phenyl)pyrrolidin-2-one]",10 to 100 nM
4,"COc1ccc(F)c(NC2CCN(c3ccc(-c4cn[nH]c4)cc3F)C2=O)c1 (single isomer, unassigned) [Example 341, 1-(2-fluoro-4-(1H-pyrazol-4-yl)phenyl)-3-((2-fluoro-5-methoxyphenyl)amino) pyrrolidin-2-one]",10 to 100 nM
5,"COc1cccc(NC2CCN(c3ccc(-c4cn[nH]c4)cc3)C2=O)n1 (racemic) [Example 223, 1-(4-(1H-pyrazol-4-yl)phenyl)-3-((6-methoxypyridin-2-yl)amino)pyrrolidin-2-one]",10 to 100 nM
6,"Cc1cc(N2CCC(Nc3cccc(OCC4CC4)c3)C2=O)ncc1-c1cn[nH]c1 (single isomer, unassigned) [Example 206, 3-((3-(cyclopropylmethoxy)phenyl)amino)-1-(4-methyl-5-(1H-pyrazol-4-yl)pyridin-2-yl)pyrrolidin-2-one]",100 to 2200 nM
7,"COc1ccc(F)c(NC2CCN(c3ccc(-c4cn[nH]c4)c(OC)c3)C2=O)c1 (single isomer, unassigned) [Example 147, 3-((2-fluoro-5-methoxyphenyl)amino)-1-(3-methoxy-4-(1H-pyrazol-4-yl)phenyl) pyrrolidin-2-one]",10 to 100 nM
8,"CCOc1cc(N2CCC(Nc3cc(F)cc(OC)c3)C2=O)ccc1-c1cn[nH]c1 (single isomer, unassigned) [Example 37, 1-(3-ethoxy-4-(1H-pyrazol-4-yl)phenyl)-3-((3-fluoro-5-methoxyphenyl)amino)pyrrolidin-2-one]",100 to 2200 nM
9,"COc1cc(NC2CCN(c3ccc(-c4cn[nH]c4)c(Cl)c3)C2=O)ccc1F (single isomer, unassigned) [Example 160, 1-(3-chloro-4-(1H-pyrazol-4-yl)phenyl)-3-((4-fluoro-3-methoxyphenyl)amino) pyrrolidin-2-one]",10 to 100 nM
10,"O=C1C(Nc2cccc(OC(F)F)c2)CCN1c1ccc(-c2cn[nH]c2)cc1 (single isomer, unassigned) [Example 231, 1-(4-(1H-pyrazol-4-yl)phenyl)-3-((3-(difluoromethoxy)phenyl)amino) pyrrolidin-2-one]",10 to 100 nM
11,"COc1c(F)cccc1NC1CCN(c2ccc(-c3cn[nH]c3)c(F)c2)C1=O (single isomer, unassigned) [Example 336, 3-((3-fluoro-2-methoxyphenyl)amino)-1-(3-fluoro-4-(1H-pyrazol-4-yl)phenyl) pyrrolidin-2-one]",< 10 nM
12,"COc1cccc(NC2CCN(c3ccc(-c4cn[nH]c4)c(C(N)=O)c3)C2=O)c1 (single isomer, unassigned) [Example 130, 5-(3-((3-Methoxyphenyl)amino)-2-oxopyrrolidin-1-yl)-2-(1H-pyrazol-4-yl)benzamide]",100 to 2200 nM
13,"COc1cc(NC2CCN(c3ccc(-c4cn[nH]c4)c(F)c3)C2=O)ccc1F (single isomer, unassigned) [Example 332, 3-((4-fluoro-3-methoxyphenyl)amino)-1-(3-fluoro-4-(1H-pyrazol-4-yl)phenyl) pyrrolidin-2-one]",< 10 nM
14,"CCc1cc(N2CCC(Nc3ccc(F)c(OC)c3)C2=O)ccc1-c1cn[nH]c1 (single isomer, unassigned) [Example 241, 1-(3-ethyl-4-(1H-pyrazol-4-yl)phenyl)-3-((4-fluoro-3-methoxyphenyl)amino) pyrrolidin-2-one]",10 to 100 nM
15,"COc1cc(N2CCC(Nc3cc(F)cc(F)c3)C2=O)ccc1-c1cn[nH]c1 (single isomer, unassigned) [Example 145, 3-((3,5-difluorophenyl)amino)-1-(3-methoxy-4-(1H-pyrazol-4-yl)phenyl) pyrrolidin-2-one]",10 to 100 nM
16,"COCc1cc(N2CCC(Nc3cc(F)cc(OC)c3)C2=O)ccc1-c1cn[nH]c1 (single isomer, unassigned) [Example 185, 3-((3-fluoro-5-methoxyphenyl)amino)-1-(3-(methoxymethyl)-4-(1H-pyrazol-4-yl)phenyl)pyrrolidin-2-one]",100 to 2200 nM
17,"Nc1cccc(OC2CCN(c3ccc(-c4cn[nH]c4)cc3)C2=O)c1 (centres unmarked) [Example 113, 1-(4-(1H-pyrazol-4-yl)phenyl)-3-(3-aminophenoxy)pyrrolidin-2-one, TFA]",10 to 100 nM
18,"COc1cc(F)cc(NC2CCN(c3ccc(-c4cn[nH]c4)c(Cl)c3)C2=O)c1 (single isomer, unassigned) [Example 158, 1-(3-chloro-4-(1H-pyrazol-4-yl)phenyl)-3 ((3-fluoro-5-methoxyphenyl)amino) pyrrolidin-2-one]",100 to 2200 nM
19,"CCc1cc(N2CCC(Nc3cccc(OC)c3)C2=O)ccc1-c1cn[nH]c1 (single isomer, unassigned) [Example 244, 1-(3-ethyl-4-(1H-pyrazol-4-yl)phenyl)-3-((3-methoxyphenyl)amino)pyrrolidin-2-one]",< 10 nM
20,"COc1ccc(F)c(NC2CCN(c3ccc(-c4cn[nH]c4)c(F)c3)C2=O)c1 (single isomer, unassigned) [Example 334, 1-(3-fluoro-4-(1H-pyrazol-4-yl)phenyl)-3-((2-fluoro-5-methoxyphenyl)amino) pyrrolidin-2-one]",10 to 100 nM
21,"COc1cccc(NC2CCN(c3ccc(-c4ccnc(N)c4)cc3)C2=O)c1 (single isomer, unassigned) [Example 76, 1-(4-(2-aminopyridin-4-yl)phenyl)-3-((3-methoxyphenyl)amino) pyrrolidin-2-one]",100 to 2200 nM
22,"COc1c(F)cccc1NC1CCN(c2ccc(-c3cn[nH]c3)cc2)C1=O (centres unmarked) [Example 1, 1-(4-(1H-Pyrazol-4-yl)phenyl)-3-((3-fluoro-2-methoxyphenyl)amino)pyrrolidin-2-one]",< 10 nM
23,"COc1cccc(CCC2CCN(c3ccc(-c4cn[nH]c4)cc3)C2=O)c1 (centres unmarked) [Example 99, 1-(4-(1H-pyrazol-4-yl)phenyl)-3-(3-methoxyphenethyl)pyrrolidin-2-one]",10 to 100 nM
24,"COc1cc(F)cc(NC2CCN(c3ccc(-c4cn[nH]c4)c(C#N)c3)C2=O)c1 (single isomer, unassigned) [Example 375, 5-(3-((3-fluoro-5-methoxyphenyl)amino)-2-oxopyrrolidin-1-yl)-2-(1H-pyrazol-4-yl)benzonitrile]",10 to 100 nM
